In US10703746B2, “Mutant IDH1 inhibitors useful for treating cancer” (THE UNITED STATES OF AMERICA, AS REPRESENTED BY THE …, priority 2014, dated 2020):

What was measured:
IDH1 R132C = IDH1 R132C (Homo sapiens, UniProt O75874, R132C); assay: IDH1 R132C enzymatic assay (NADPH depletion coupled to diaphorase/resazurin); assay type: biochemical
Procedure, shortened: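 NADPH depletion, read via diaphorase/resazurin coupling, after adding substrate at 0.6 mM α-KG and 0.012 mM NADPH. Beforehand, 0.00032 mg/mL enzyme sat with compound 30 min at room temperature in pH 6.5 potassium phosphate buffer with MgCl2, glycerol and BSA.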

IDH1 R132H = IDH1 R132H (Homo sapiens, UniProt O75874, R132H); assay: IDH1 R132H enzymatic assay (NADPH depletion coupled to diaphorase/resazurin); assay type: biochemical
Sequence of IDH1 R132H (O75874 whole entry R132H): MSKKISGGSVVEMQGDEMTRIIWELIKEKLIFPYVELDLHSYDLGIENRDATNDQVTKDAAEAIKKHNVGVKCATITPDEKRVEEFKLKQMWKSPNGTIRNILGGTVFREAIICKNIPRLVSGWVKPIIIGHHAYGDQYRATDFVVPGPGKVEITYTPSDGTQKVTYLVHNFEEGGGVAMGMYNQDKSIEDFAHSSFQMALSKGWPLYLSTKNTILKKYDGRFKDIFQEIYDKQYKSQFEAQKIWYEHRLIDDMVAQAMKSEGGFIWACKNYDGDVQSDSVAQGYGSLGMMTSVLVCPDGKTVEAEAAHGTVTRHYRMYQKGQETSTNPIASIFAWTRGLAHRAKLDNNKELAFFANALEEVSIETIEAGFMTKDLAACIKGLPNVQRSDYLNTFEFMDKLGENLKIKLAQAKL

[1] = IDH1 R132C enzymatic inhibition, IC50 class
[2] = IDH1 R132H enzymatic inhibition, IC50 class
[3] = enzymatic inhibition, IDH1 R132C
[4] = enzymatic inhibition, IDH1 R132H

Sequence of IDH1 R132C (O75874 whole entry R132C): as the sequence (O75874 whole entry R132H) above, with H132C counted along it

| SMILES | IC50 (IDH1 R132C; [1]) [µM] | IC50 (IDH1 R132H; [2]) [µM] | IC50 (IDH1 R132C; [3]) [µM] | IC50 (IDH1 R132H; [4]) [µM] |
| --- | --- | --- | --- | --- |
| CC1(C)CC(=O)c2cc(-c3nc(-c4ccc(Cl)cc4)cs3)c(=O)n(-c3ccccc3OC3CC3)c2C1 [Compound 25] | 0.3 to 1 | 1 to 5 |  |  |
| CCc1cccc(CC)c1-n1c2c(cc(-c3nc(-c4ccc(F)cc4)cs3)c1=O)C(=O)CC(C)(C)C2 [Compound 148] | 0.3 to 1 | 0.3 to 1 |  |  |
| Cc1conc1-n1c2c(cc(-c3nc(-c4ccc(Cl)cc4)cs3)c1=O)C(=O)CC(C)(C)C2 [Compound 472] |  |  | 1 to 5 | 1 to 5 |
| CCc1cccc(CC)c1-n1c2c(cc(-c3nc(-c4ccc(Cl)cc4)cs3)c1=O)C(=O)CC(C)(C)C2 [Compound 282] | < 0.3 | 0.3 to 1 |  |  |
| CCc1cccc(CC)c1-n1c(C2CC2)c(C(=O)N2CCNCC2)cc(-c2nc(-c3ccc(Cl)cc3)cs2)c1=O [Compound 502] |  |  | < 0.3 | < 0.3 |
| COc1cccc(C)c1-n1c2c(cc(-c3nc(-c4ccc(Cl)cc4)cs3)c1=O)C(=O)CCC2 [Compound 375] | 1 to 5 | 1 to 5 |  |  |
| CCOc1ccc(OCC)c(-n2c(C=C(C)C)c(C(=O)N3CCNCC3)cc(-c3nc(-c4ccc(Cl)cc4)cs3)c2=O)c1 [Compound 348] | < 0.3 | < 0.3 |  |  |
| CN1CCN(Cc2cccc(-n3c4c(cc(-c5nc(-c6ccc(Cl)cc6)cs5)c3=O)C(=O)CC(C)(C)C4)c2)CC1 [Compound 445] |  |  | 5 to 20 | 5 to 20 |
| CCOc1ncc(Cl)cc1-n1c(C=C(C)C)c(C(=O)N2CCNCC2)cc(-c2nc(-c3ccc(C(F)(F)F)nc3)cs2)c1=O [Compound 513] |  |  | 0.3 to 1 | < 0.3 |
| CCOc1ncc(C)cc1-n1c(C=C(C)C)c(C(=O)N2CCNCC2)cc(-c2nc(-c3ccc(Cl)cc3)cs2)c1=O [Compound 544] |  |  | < 0.3 | < 0.3 |
| CCc1cccc(CC)c1-n1c(C)c(C(=O)Nc2ccccc2)cc(-c2nc(-c3ccc(Cl)cc3)cs2)c1=O [Compound 180] | > 20 | > 20 |  |  |
| COc1cc(C(=O)O)ccc1-n1c2c(cc(-c3nc(-c4ccc(Cl)cc4)cs3)c1=O)C(=O)CC(C)(C)C2 [Compound 136] | > 20 | > 20 |  |  |
| COc1ccc(C#N)cc1-n1c2c(cc(-c3nc(-c4ccc(Cl)cc4)cs3)c1=O)C(=O)CC(C)(C)C2 [Compound 509] |  |  | 1 to 5 | 1 to 5 |
| COc1ccc(OC)c(-n2c3c(cc(-c4c[nH]c(-c5ccccc5)n4)c2=O)C(=O)CC(C)(C)C3)c1 [Compound 290] | 1 to 5 | 1 to 5 |  |  |
| CCc1cccc(CC)c1-n1c(CCOC)c(C(=O)N2CCNCC2)cc(-c2nc(-c3ccc(Cl)cc3)cs2)c1=O [Compound 278] | < 0.3 | < 0.3 |  |  |
| CC1(C)CC(=O)c2cc(-c3nc(-c4ccc(Cl)cc4)cs3)c(=O)n(-c3ccccc3C(F)(F)F)c2C1 [Compound 57] | < 0.3 | 0.3 to 1 |  |  |
| CCc1cccc(CC)c1-n1c(CC(C)C)c(C(=O)N2CCNCC2)cc(-c2nc(-c3ccc(Cl)cc3)c(C(F)(F)F)s2)c1=O [Compound 430] |  |  | 0.3 to 1 | 0.3 to 1 |
| CCc1cccc(CC)c1-n1c(C)c(C(=O)N2CC(O)C2)cc(-c2nc(-c3ccc(Cl)cc3)cs2)c1=O [Compound 242] | 1 to 5 | 1 to 5 |  |  |
| CCc1cccc(CC)c1-n1c(CC(C)C)c(C(=O)N2CC(=O)N[C@H](C(=O)O)C2)cc(-c2nc(-c3ccc(Cl)cc3)cs2)c1=O [Compound 193] | 0.3 to 1 | 0.3 to 1 |  |  |
| CCc1cccc(CC)c1-n1c2c(cc(-c3nc(-c4ccccc4Cl)cs3)c1=O)C(=O)CC(C)(C)C2 [Compound 213] | 1 to 5 | 1 to 5 |  |  |
| CCc1cccc(CC)c1-n1c(C=C(C)C)c(C(=O)N2CCNC(=O)C2)cc(-c2nc(-c3ccc(Cl)cc3)cs2)c1=O [Compound 358] | < 0.3 | < 0.3 |  |  |
| CCc1cccc(CC)c1-n1c(CC(C)C)c(C(=O)N2CCNCC2)cc(-c2nc(-c3ccc(C(C)(C)C)cc3)c(C)s2)c1=O [Compound 160] | 1 to 5 | 1 to 5 |  |  |
| Cc1cccc(CO)c1-n1c2c(cc(-c3nc(-c4ccc(Cl)cc4)cs3)c1=O)C(=O)CCC2 [Compound 428] |  |  | 1 to 5 | 1 to 5 |
| COc1cccc(-n2c3c(cc(-c4nc(-c5ccc(Cl)cc5)cs4)c2=O)C(=O)CC(C)(C)C3)c1OC [Compound 567] |  |  | 1 to 5 | 1 to 5 |
| CCc1cccc(CC)c1-n1c(CC(C)C)c(C(=O)N2CC(C(=O)O)NCC2C)cc(-c2nc(-c3ccc(Cl)cc3)cs2)c1=O (stereo not drawn) [Compound 206] | < 0.3 | 0.3 to 1 |  |  |
| CCc1cccc(CC)c1-n1c(CC(C)C)c(C(=O)N[C@@H]2CCC[C@H]2O)cc(-c2nc(-c3ccc(Cl)cc3)cs2)c1=O [Compound 217] | 0.3 to 1 | 1 to 5 |  |  |
| CCc1cccc(CC)c1-n1c(C)c(C(=O)NCC(C)(C)C)cc(-c2nc(-c3ccc(Cl)cc3)cs2)c1=O [Compound 146] | 1 to 5 | > 20 |  |  |

| SMILES | IC50 (IDH1 R132C; [1]) [µM] | IC50 (IDH1 R132H; [2]) [µM] | IC50 (IDH1 R132C; [3]) [µM] | IC50 (IDH1 R132H; [4]) [µM] |
| --- | --- | --- | --- | --- |
| CCc1cccc(CC)c1-n1c(C)c(C(=O)NC)cc(-c2nc(-c3ccc(Cl)cc3)cs2)c1=O [Compound 108] | 1 to 5 | 1 to 5 |  |  |
| CCOc1ncc(F)cc1-n1c(C=C(C)C)c(C(=O)N2CCNCC2)cc(-c2nc(-c3ccc(C(F)(F)F)nc3)cs2)c1=O [Compound 534] |  |  | < 0.3 | < 0.3 |
| CCc1cccc(CC)c1-n1c(C)c(C(=O)NC2CC2)cc(-c2nc(-c3ccc(Cl)cc3)cs2)c1=O [Compound 265] | 1 to 5 | 1 to 5 |  |  |
| CCc1cccc(CC)c1-n1c(CC2CC2)c(C(=O)N2CCNCC2)cc(-c2nc(-c3ccc(Cl)nc3)cs2)c1=O [Compound 492] |  |  | < 0.3 | < 0.3 |
| CCc1cccc(CC)c1-n1c(CC(C)C)c(C(=O)N2CCNCC2)cc(-c2nc(-c3ccccc3)c(C)s2)c1=O [Compound 81] | 0.3 to 1 | < 0.3 |  |  |
| CCc1cccc(CC)c1-n1c(C=C(C)C)c(C(=O)N2C[C@H]3C[C@@H]2CN3)cc(-c2nc(-c3ccc(Cl)cc3)cs2)c1=O [Compound 447] |  |  | < 0.3 | < 0.3 |
| CCc1cccc(CC)c1-n1c(C=C(C)C)c(C(=O)N2CCNC(=O)CC2)cc(-c2nc(-c3ccc(Cl)cc3)cs2)c1=O [Compound 537] |  |  | < 0.3 | < 0.3 |
| CC1(C)CC(=O)c2cc(-c3nc(-c4ccc(Cl)cc4)cs3)c(=O)n(-c3ccccc3OC(F)(F)F)c2C1 [Compound 9] | 0.3 to 1 | 1 to 5 |  |  |
| CN1CCN(Cc2ccc(-n3c4c(cc(-c5nc(-c6ccc(Cl)cc6)cs5)c3=O)C(=O)CCC4)cc2)CC1 [Compound 360] | > 20 | > 20 |  |  |
| CCc1cccc(CC)c1-n1c(C=C(C)C)c(C(=O)N2CC3(CCNC3)C2)cc(-c2nc(-c3ccc(Cl)cc3)cs2)c1=O [Compound 344] | < 0.3 | 0.3 to 1 |  |  |
| CCc1cccc(CC)c1-n1c(C)c(C(=O)N2CCC(O)C2)cc(-c2nc(-c3ccc(Cl)cc3)cs2)c1=O (stereo not drawn) [Compound 103] | 5 to 20 | 1 to 5 |  |  |
| CCc1cccc(CC)c1-n1c(CC(C)C)c(C(=O)N2CCNCC2)cc(-c2nc(-c3ccc(Cl)c(Cl)c3)c(C)s2)c1=O [Compound 551] |  |  | < 0.3 | 0.3 to 1 |
| COc1ccc(OC)c(-n2c3c(cc(-c4nc(C5CCCCC5)cs4)c2=O)C(=O)CC(C)(C)C3)c1 [Compound 69] | 1 to 5 | 1 to 5 |  |  |
| CCc1cccc(CC)c1-n1c(C)c(C(=O)N2CCNC[C@H]2C)cc(-c2nc(-c3ccc(Cl)cc3)cs2)c1=O [Compound 142] | 0.3 to 1 | < 0.3 |  |  |
| CC1(C)CC(=O)c2cc(-c3nc(-c4ccc(C(F)(F)F)cc4)cs3)c(=O)n(-c3ccccc3C(F)(F)F)c2C1 [Compound 85] | 0.3 to 1 | 0.3 to 1 |  |  |
| CCCC1CN(C(=O)c2cc(-c3nc(-c4ccc(Cl)cc4)cs3)c(=O)n(-c3c(CC)cccc3CC)c2C=C(C)C)CCN1 (stereo not drawn) [Compound 542] |  |  | < 0.3 | < 0.3 |
| CCc1cccc(CC)c1-n1c(C=C(C)C)c(C(=O)N2CCC(NC)CC2)cc(-c2nc(-c3ccc(Cl)cc3)cs2)c1=O [Compound 623] | < 0.3 | < 0.3 |  |  |
| CSc1ccccc1-n1c2c(cc(-c3nc(-c4ccc(Cl)cc4)cs3)c1=O)C(=O)CC(C)(C)C2 [Compound 164] | 0.3 to 1 | 1 to 5 |  |  |
| CC1(C)CC(=O)c2cc(-c3nc(-c4ccc(Cl)cc4)cs3)c(=O)n(-c3sccc3C#N)c2C1 [Compound 402] |  |  | < 0.3 | 0.3 to 1 |
| CCc1cccc(CC)c1-n1c(C)c(C(=O)NC[C@@H](C)O)cc(-c2nc(-c3ccc(Cl)cc3)cs2)c1=O [Compound 151] | 0.3 to 1 | 1 to 5 |  |  |
| CCc1cccc(CC)c1-n1c(C=C(C)C)c(C(=O)N2CCNC(C(N)=O)C2)cc(-c2nc(-c3ccc(Cl)cc3)cs2)c1=O (stereo not drawn) [Compound 426] |  |  | < 0.3 | < 0.3 |
| CCc1cccc(CC)c1-n1c(CC(C)C)c(C(=O)N2CCNCC2)cc(-c2nc(-c3ccc(OCc4ccccc4)cc3)c(C)s2)c1=O [Compound 39] | 5 to 20 | 5 to 20 |  |  |
| CN1CCN(c2ccc(-n3c4c(cc(-c5nc(-c6ccc(Cl)cc6)cs5)c3=O)C(=O)CC(C)(C)C4)c(C(F)(F)F)c2)CC1 [Compound 493] |  |  | 5 to 20 | 5 to 20 |
| CCc1cccc(CC)c1-n1c(CC(C)C)c(C(=O)O)cc(-c2nc(-c3ccc(Cl)cc3)cs2)c1=O [Compound 14] | 5 to 20 | 1 to 5 |  |  |
| CCc1cccc(CC)c1-n1c(C)c(C(=O)N2CCCC(N)C2)cc(-c2nc(-c3ccc(Cl)cc3)cs2)c1=O (stereo not drawn) [Compound 223] | < 0.3 | 1 to 5 |  |  |
| COc1ccc(OC)c(-n2c3c(cc(-n4ccc(-c5ccccc5)n4)c2=O)C(=O)CC(C)(C)C3)c1 [Compound 191] | 1 to 5 | 1 to 5 |  |  |
| CCc1cccc(CC)c1-n1c(CC2CCOC2)c(C(=O)N2CCNCC2)cc(-c2nc(-c3ccc(Cl)cc3)cs2)c1=O (stereo not drawn) [Compound 611] |  |  | < 0.3 | < 0.3 |
